PubChem BioAssay AID1259407 (Chemical Carcinogenesis Research Information System (CCRIS), 2018)
Active and inactive are the calls of the source. The rule behind the calls is not given here.

Test system: CCRIS mutagenicity, Ames/micronucleus/aberration tests
Assay: CCRIS mutagenicity studies
[1] = Test System: AMES SALMONELLA TYPHIMURIUM, Strain/Indicator: TA98, Metabolic Activation: NONE, Method: STANDARD PLATE
[2] = Test System: AMES SALMONELLA TYPHIMURIUM, Strain/Indicator: TA100, Metabolic Activation: NONE, Method: STANDARD PLATE
[3] = Test System: AMES SALMONELLA TYPHIMURIUM, Strain/Indicator: TA100, Metabolic Activation: RAT, LIVER, S-9, AROCLOR 1254, Method: STANDARD PLATE
[4] = Test System: AMES SALMONELLA TYPHIMURIUM, Strain/Indicator: TA1535, Metabolic Activation: NONE, Method: STANDARD PLATE
[5] = Test System: AMES SALMONELLA TYPHIMURIUM, Strain/Indicator: TA1535, Metabolic Activation: RAT, LIVER, S-9, AROCLOR 1254, Method: STANDARD PLATE
[6] = Test System: AMES SALMONELLA TYPHIMURIUM, Strain/Indicator: TA98, Metabolic Activation: NONE, Method: PREINCUBATION
[7] = Test System: AMES SALMONELLA TYPHIMURIUM, Strain/Indicator: TA98, Metabolic Activation: RAT, LIVER, S-9, PCB, Method: PREINCUBATION
[8] = Test System: AMES SALMONELLA TYPHIMURIUM, Strain/Indicator: TA100, Metabolic Activation: NONE, Method: PREINCUBATION

With `C[Si](C)(C)O[Si](C)(C)O[Si](C)(C)C` the mutagenic call (Test System: AMES SALMONELLA TYPHIMURIUM, Strain/Indicator: TA98, Metabolic Activation: HAMSTER, LIVER, S-9, AROCLOR 1254, Method: STANDARD PLATE) was “inactive; negative”, the mutagenic call [1] was “inactive; negative” and the mutagenic call (Test System: AMES SALMONELLA TYPHIMURIUM, Strain/Indicator: TA98, Metabolic Activation: RAT, LIVER, S-9, AROCLOR 1254, Method: STANDARD PLATE) was “inactive; negative”. The mutagenic call (Test System: AMES SALMONELLA TYPHIMURIUM, Strain/Indicator: TA100, Metabolic Activation: HAMSTER, LIVER, S-9, AROCLOR 1254, Method: STANDARD PLATE) was “inactive; negative”, the mutagenic call [2] was “inactive; negative” and the mutagenic call [3] was “inactive; negative”. For the same compound, the mutagenic call (Test System: AMES SALMONELLA TYPHIMURIUM, Strain/Indicator: TA1535, Metabolic Activation: HAMSTER, LIVER, S-9, AROCLOR 1254, Method: STANDARD PLATE) was “inactive; negative”, the mutagenic call [4] was “inactive; negative” and the mutagenic call [5] was “inactive; negative”. The mutagenic call (Test System: AMES SALMONELLA TYPHIMURIUM, Strain/Indicator: TA1537, Metabolic Activation: HAMSTER, LIVER, S-9, AROCLOR 1254, Method: STANDARD PLATE) was “inactive; negative”, the mutagenic call (Test System: AMES SALMONELLA TYPHIMURIUM, Strain/Indicator: TA1537, Metabolic Activation: NONE, Method: STANDARD PLATE) was “inactive; negative” and the mutagenic call (Test System: AMES SALMONELLA TYPHIMURIUM, Strain/Indicator: TA1537, Metabolic Activation: RAT, LIVER, S-9, AROCLOR 1254, Method: STANDARD PLATE) was “inactive; negative”. The mutagenic call (Test System: AMES SALMONELLA TYPHIMURIUM, Strain/Indicator: TA1538, Metabolic Activation: HAMSTER, LIVER, S-9, AROCLOR 1254, Method: STANDARD PLATE) was “inactive; negative”, the mutagenic call (Test System: AMES SALMONELLA TYPHIMURIUM, Strain/Indicator: TA1538, Metabolic Activation: NONE, Method: STANDARD PLATE) was “inactive; negative” and the mutagenic call (Test System: AMES SALMONELLA TYPHIMURIUM, Strain/Indicator: TA1538, Metabolic Activation: RAT, LIVER, S-9, AROCLOR 1254, Method: STANDARD PLATE) was “inactive; negative”. For the same compound, the mutagenic call (Test System: E. COLI, Strain/Indicator: WP2, Metabolic Activation: NONE, Method: STANDARD PLATE) was “inactive; negative”, the mutagenic call (Test System: E. COLI, Strain/Indicator: WP2, Metabolic Activation: RAT, LIVER, S-9, AROCLOR 1254, Method: STANDARD PLATE) was “inactive; negative” and the mutagenic call (Test System: MOUSE LYMPHOMA, Strain/Indicator: L5178Y (TK+/TK-), Metabolic Activation: NONE, Method: SUSPENSION/PLATE) was “active; positive. reevaluation of results: positive”. For the same compound, the mutagenic call (Test System: MOUSE LYMPHOMA, Strain/Indicator: L5178Y (TK+/TK-), Metabolic Activation: RAT, LIVER, S-9, AROCLOR 1254, Method: SUSPENSION/PLATE) was “inactive; negative. reevaluation of results: negative”.

For `C1CCNC1`, the mutagenic call [6] was “inactive; negative”, the mutagenic call [7] was “inactive; negative” and the mutagenic call [8] was “inactive; negative”. For the same compound, the mutagenic call (Test System: AMES SALMONELLA TYPHIMURIUM, Strain/Indicator: TA100, Metabolic Activation: RAT, LIVER, S-9, PCB, Method: PREINCUBATION) was “inactive; negative”.

In the case of `[Cl][La]([Cl])[Cl]`, the mutagenic call (Test System: E. COLI, Strain/Indicator: WP2 UVRA, Metabolic Activation: NONE, Method: SPOT TEST) was “inactive; negative”.

`COP(N)(=O)SC` (configuration not stated) was tested, and the mutagenic call (Test System: Ames Salmonella typhimurium, Strain/Indicator: TA98, Metabolic Activation: None, Method: Preincubation) was “active; positive”, the mutagenic call (Test System: Ames Salmonella typhimurium, Strain/Indicator: TA98, Metabolic Activation: Rat, Liver, S-9 (10%), Aroclor 1254, Method: Preincubation) was “active; positive” and the mutagenic call (Test System: Ames Salmonella typhimurium, Strain/Indicator: TA100, Metabolic Activation: None, Method: Preincubation) was “inactive; negative”. For the same compound, the mutagenic call (Test System: Ames Salmonella typhimurium, Strain/Indicator: TA100, Metabolic Activation: Rat, Liver, S-9 (10%), Aroclor 1254, Method: Preincubation) was “inactive; negative”.

For `NC(=O)Nc1cccc2cccnc12`, the mutagenic call (Test System: AMES SALMONELLA TYPHIMURIUM, Strain/Indicator: TA100, Metabolic Activation: S-9, Method: PREINCUBATION) was “inactive; negative”.

For `c1ccc2sc(SSc3nc4ccccc4s3)nc2c1`, the mutagenic call (Test System: AMES SALMONELLA TYPHIMURIUM, Strain/Indicator: TA97, Metabolic Activation: HAMSTER, LIVER, S-9, AROCLOR 1254 (10%), Method: PREINCUBATION) was “inactive; negative”, the mutagenic call (Test System: AMES SALMONELLA TYPHIMURIUM, Strain/Indicator: TA97, Metabolic Activation: NONE, Method: PREINCUBATION) was “active; positive” and the mutagenic call (Test System: AMES SALMONELLA TYPHIMURIUM, Strain/Indicator: TA97, Metabolic Activation: RAT, LIVER, S-9, AROCLOR 1254 (10%), Method: PREINCUBATION) was “inactive; negative”. The mutagenic call (Test System: AMES SALMONELLA TYPHIMURIUM, Strain/Indicator: TA98, Metabolic Activation: HAMSTER, LIVER, S-9, AROCLOR 1254 (10 OR 30%), Method: PREINCUBATION) was “inactive; negative”, the mutagenic call (Test System: AMES SALMONELLA TYPHIMURIUM, Strain/Indicator: TA98, Metabolic Activation: RAT, LIVER, S-9, AROCLOR 1254 (10 OR 30%), Method: PREINCUBATION) was “inactive; negative” and the mutagenic call (Test System: AMES SALMONELLA TYPHIMURIUM, Strain/Indicator: TA100, Metabolic Activation: HAMSTER, LIVER, S-9, AROCLOR 1254 (10 OR 30%), Method: PREINCUBATION) was “inactive; negative”. For the same compound, the mutagenic call [8] was “inactive; negative”, the mutagenic call (Test System: AMES SALMONELLA TYPHIMURIUM, Strain/Indicator: TA100, Metabolic Activation: RAT, LIVER, S-9, AROCLOR 1254 (10 OR 30%), Method: PREINCUBATION) was “active; positive” and the mutagenic call (Test System: AMES SALMONELLA TYPHIMURIUM, Strain/Indicator: TA1535, Metabolic Activation: HAMSTER, LIVER, S-9, AROCLOR 1254 (10%), Method: PREINCUBATION) was “inactive; negative”. The mutagenic call (Test System: AMES SALMONELLA TYPHIMURIUM, Strain/Indicator: TA1535, Metabolic Activation: NONE, Method: PREINCUBATION) was “inactive; negative” and the mutagenic call (Test System: AMES SALMONELLA TYPHIMURIUM, Strain/Indicator: TA1535, Metabolic Activation: RAT, LIVER, S-9, AROCLOR 1254 (10%), Method: PREINCUBATION) was “inactive; negative”.

In the case of `C1CCCCCC2OC2CCCC1` (configuration not stated), the mutagenic call [2] was “inactive; negative”, the mutagenic call [3] was “inactive; negative” and the mutagenic call [4] was “inactive; negative”. The mutagenic call [5] was “inactive; negative” and the mutagenic call (Test System: UDS RAT HEPATOCYTES, Strain/Indicator: THY INCORP, Metabolic Activation: NONE) was “inactive; negative”.

`O=[N+]([O-])c1ccc2[nH]ccc2c1` was tested, and the mutagenic call [1] was “active; positive”.

In the case of `O=C(CC(O)(CC(=O)OCCBr)C(=O)OCCBr)OCCBr`, the mutagenic call [2] was “inactive; negative” and the mutagenic call [3] was “active; positive”.

In the case of `C[C@H](CCC(=O)O)[C@H]1CC[C@H]2[C@@H]3CC[C@@H]4C[C@@H](O)CC[C@]4(C)[C@H]3C[C@H](O)[C@]12C`, the mutagenic call (Test System: AMES SALMONELLA TYPHIMURIUM, Strain/Indicator: TA98, Metabolic Activation: NONE, Method: FLUCTUATION TEST) was “inactive; negative”, the mutagenic call [6] was “inactive; negative” and the mutagenic call [7] was “inactive; negative”. The mutagenic call (Test System: AMES SALMONELLA TYPHIMURIUM, Strain/Indicator: TA100, Metabolic Activation: NONE, Method: FLUCTUATION TEST) was “inactive; negative”.
